# Test results reported in patent US9193729B2, “Inhibiting transient receptor potential ion channel TRPA1” (Cubist Pharmaceuticals, Inc., priority 2011, dated 2015).
# “Also recorded” adds a separate entry of the source.
# Tests used:
# [1] = molecular target: dTRPA1 (Canis lupus familiaris, UniProt A0A8I3Q1Q7); assay: Whole-cell patch clamp inhibition of dTRPA1; format: cell-based, Dog; settings: dTRPA1, 10 micromolar AITC activation; read-out: IC50 Inward current
# Protocol: (§1) Data for TRPA1 inhibition and the selectivity of TRPA1 inhibition was obtained by this method for the compound of Formula (Ia) and included in Table 1 and Table 2. All currents were recorded in whole-cell configuration using EPC-9 and EPC-10 amplifiers and Patchmaster software (HEKA). […] The standard pipette solution consisted of 140 mM CsAsp, 10 mM EGTA, 10 mM HEPES, 2.27 mM MgCl2, 1.91 mM CaCl2, 4 mM MgATP, and 0.1-0.3 mM Na2GTP, with pH adjusted to 7.2 with CsOH. In addition, a solution containing 145 mM CsCl, 10 mM HEPES, 10 mM EGTA and 1 mM MgCl2 (pH 7.2 adjusted with CsOH) can be used. The standard bath solution contained 150 mM NaCl, 10 mM HEPES, 10 mM glucose, 4.5 mM KCl, 1 mM EGTA, 3 mM MgCl2, with pH adjusted to 7.4 with NaOH. In some instances, 2 mM CaCl2 was added in place of EGTA and the concentration of MgCl2 was reduced to 1 mM.
# (§2) Data were collected either by continuous recordings at −60 mV or by applying voltage ramps from a holding potential of 0 mV every 4 s. […] Inward and outward currents were analyzed from the ramps at −80 and 80 mV, respectively. […]
# (§3) Solutions were switched using a gravity-fed continuous focal perfusion system. […] Temperatures were confirmed using a thermistor (Warner Instruments, TA-29), with temperatures at the recorded cell estimated to be within +/−2° C. of those reported. […]
# [2] = molecular target: T1, hTRPC5 (Homo sapiens, UniProt Q9UL62); assay: Patch clamp selectivity, hTRPC5; format: cell-based; settings: hTRPC5 vs TRPA1
# T1 sequence (Q9UL62 1-973): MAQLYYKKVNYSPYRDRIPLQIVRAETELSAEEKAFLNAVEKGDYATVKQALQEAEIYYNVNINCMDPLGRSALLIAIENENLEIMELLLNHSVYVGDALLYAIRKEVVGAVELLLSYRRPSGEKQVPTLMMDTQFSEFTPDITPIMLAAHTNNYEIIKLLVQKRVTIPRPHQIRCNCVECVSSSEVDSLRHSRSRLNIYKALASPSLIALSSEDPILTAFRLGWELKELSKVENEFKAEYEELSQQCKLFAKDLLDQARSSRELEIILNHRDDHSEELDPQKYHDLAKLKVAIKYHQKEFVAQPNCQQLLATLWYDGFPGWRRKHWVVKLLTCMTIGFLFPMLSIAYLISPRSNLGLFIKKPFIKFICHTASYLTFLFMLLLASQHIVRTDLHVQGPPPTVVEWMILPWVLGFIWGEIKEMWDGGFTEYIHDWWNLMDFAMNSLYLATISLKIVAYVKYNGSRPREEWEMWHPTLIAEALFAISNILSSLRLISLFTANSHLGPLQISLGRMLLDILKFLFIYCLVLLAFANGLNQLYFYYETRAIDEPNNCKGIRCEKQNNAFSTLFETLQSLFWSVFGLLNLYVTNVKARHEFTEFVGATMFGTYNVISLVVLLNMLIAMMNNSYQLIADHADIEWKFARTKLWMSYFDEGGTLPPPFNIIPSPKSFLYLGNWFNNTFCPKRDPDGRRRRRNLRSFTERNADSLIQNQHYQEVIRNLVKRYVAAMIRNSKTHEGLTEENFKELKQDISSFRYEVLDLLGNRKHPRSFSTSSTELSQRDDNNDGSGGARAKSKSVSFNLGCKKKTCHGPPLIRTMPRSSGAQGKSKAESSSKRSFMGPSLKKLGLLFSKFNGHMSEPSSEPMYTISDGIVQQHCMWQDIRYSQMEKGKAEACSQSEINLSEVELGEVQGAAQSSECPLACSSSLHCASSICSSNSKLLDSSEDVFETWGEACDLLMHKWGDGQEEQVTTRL
# Protocol: as §1, §2, §3
# [3] = test system: incisional spontaneous pain; assay: Surgical incision pain model (Brennan Surgical Model); format: in vivo, rat; settings: 60 mg/kg i.p. vs ketoprofen (2 doses of 2 mg/kg intraperitoneally)
# Protocol: The compound of Formula (Ia), the comparator compound of Formula (III) and ketoprofen were tested by the incisional pain test method reported in Brennan et al., Pain, 1996 March; 64(3):493-501 incorporated herein by reference in its entirety. Briefly, in rats under anesthesia, a 1 cm incision through skin and underlying muscle is made in the bottom of one hind paw. The incision is sutured closed and the animals allowed to regain consciousness in their home cage before being placed on a special mesh rack. The blinded observer subjectively assesses and records each animal's pain score every 5 minutes for 1 hour. Pain scores are assigned as follows: Score of 0=Injured paw is held flat on the rack and is bearing weight (=uninjured paw); 1=Injured paw is slightly lifted from the rack but is bearing some weight; 2=Injured paw is flat but is bearing no weight, or heel is lifted high off the rack with only toes touching. At the end of each hour, pain scores are added up and the final score recorded ([…]). In a typical study the efficacy of the drug treatment is determined by comparing the cumulative guarding scores at 1-2 and 3-4 hours following surgical injury to the cumulative guarding scores of animals that received the vehicle.
# [4] = test system: female rats; assay: 7-day i.p. repeat dose screening toxicity study; format: in vivo, rat; settings: female rats, 50 mg/kg/day i.p. for 7 consecutive days
# Protocol: The compound of Formula (Ia) was evaluated in a 7-day repeat dose screening toxicity study in female rats. In order to maximize systemic exposure, rats were administered compound of Formula (Ia) i.p. at 50 mg/kg/day for 7 consecutive days, to obtain the results shown in FIG. 6. Clinical chemistry parameters were evaluated on Days 3 and 8. Histopathology was performed on select organs including the liver, kidney, spleen, and lung.
# dTRPA1, sequence (A0A8I3Q1Q7 1-1118): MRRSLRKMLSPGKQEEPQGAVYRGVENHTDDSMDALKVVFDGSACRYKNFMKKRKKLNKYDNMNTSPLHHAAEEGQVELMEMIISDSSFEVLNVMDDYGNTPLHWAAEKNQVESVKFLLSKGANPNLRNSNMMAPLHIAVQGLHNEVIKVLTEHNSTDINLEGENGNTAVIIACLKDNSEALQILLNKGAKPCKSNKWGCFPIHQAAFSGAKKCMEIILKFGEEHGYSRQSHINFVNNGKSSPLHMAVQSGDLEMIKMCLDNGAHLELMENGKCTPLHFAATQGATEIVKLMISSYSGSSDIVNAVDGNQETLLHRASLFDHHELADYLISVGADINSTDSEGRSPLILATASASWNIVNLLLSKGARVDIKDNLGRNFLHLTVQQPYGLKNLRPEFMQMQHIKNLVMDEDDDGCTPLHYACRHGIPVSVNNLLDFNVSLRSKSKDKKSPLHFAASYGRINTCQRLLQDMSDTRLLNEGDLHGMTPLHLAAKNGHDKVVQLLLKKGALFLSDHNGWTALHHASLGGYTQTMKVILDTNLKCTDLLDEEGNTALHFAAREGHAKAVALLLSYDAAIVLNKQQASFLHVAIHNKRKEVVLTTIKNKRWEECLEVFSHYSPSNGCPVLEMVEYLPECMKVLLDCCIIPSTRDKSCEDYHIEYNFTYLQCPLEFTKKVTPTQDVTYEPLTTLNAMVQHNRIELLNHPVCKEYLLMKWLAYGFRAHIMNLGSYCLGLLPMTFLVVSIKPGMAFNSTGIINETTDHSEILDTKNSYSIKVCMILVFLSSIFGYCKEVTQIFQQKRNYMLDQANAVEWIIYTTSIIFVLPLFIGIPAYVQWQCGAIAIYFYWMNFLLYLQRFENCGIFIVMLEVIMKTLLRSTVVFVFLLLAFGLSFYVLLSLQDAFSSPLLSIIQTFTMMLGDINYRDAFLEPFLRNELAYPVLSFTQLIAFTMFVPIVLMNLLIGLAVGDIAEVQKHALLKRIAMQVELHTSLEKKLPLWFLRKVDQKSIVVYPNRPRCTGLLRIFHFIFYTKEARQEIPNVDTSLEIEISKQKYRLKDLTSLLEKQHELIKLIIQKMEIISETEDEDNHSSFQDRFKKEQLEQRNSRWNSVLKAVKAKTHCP
compound,measurement,setting,value
C[C@H]1CCCN1c1ncc(-c2cccc(NC(=O)Cn3cnc4c3c(=O)n(C)c(=O)n4C)n2)cn1 [Formula (Ia)],IC50,[1],~100 nM
same,Fold Selectivity Compared to TRPA1,[2],>100 Fold
same,reduction of spontaneous pain compared with ketoprofen,[3],equivalent to ketoprofen; also recorded: better than ketoprofen
same,"histopathology of liver, kidney, spleen, lung",[4]; 50 mg/kg/day,"No histopathological findings in the liver, kidney, spleen, or lung; also recorded: no adverse effects"
same,"clinical signs, body weight, clinical chemistry parameters",[4]; Days 3 and 8,"no adverse clinical signs, changes in body weight, or changes in clinical chemistry parameters were noted"
